Results as given in BindingDB's records for doi:10.1021/acs.jmedchem.8b00864 (2018).

Target: 2-acylglycerol O-acyltransferase 2 (MOGAT2, Homo sapiens) (UniProt Q3SYC2)
Assay: Inhibition of recombinant human MGAT2 using 2-monooleoyl glycerol/[1-14C]-oleoyl CoA as substrate after 30 mins by liquid scintillation counting method

2-acylglycerol O-acyltransferase 2 (MOGAT2, Homo sapiens), sequence (Q3SYC2 whole entry, looked up): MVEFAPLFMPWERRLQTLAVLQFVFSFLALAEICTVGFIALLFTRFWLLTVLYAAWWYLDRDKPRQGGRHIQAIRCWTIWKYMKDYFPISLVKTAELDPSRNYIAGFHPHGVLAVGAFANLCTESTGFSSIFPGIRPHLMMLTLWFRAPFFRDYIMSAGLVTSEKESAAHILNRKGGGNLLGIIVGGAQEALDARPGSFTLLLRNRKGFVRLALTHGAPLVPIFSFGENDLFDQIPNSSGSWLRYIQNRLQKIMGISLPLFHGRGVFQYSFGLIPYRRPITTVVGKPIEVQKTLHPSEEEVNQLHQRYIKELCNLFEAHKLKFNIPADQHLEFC

SMILES | IC50 [nM]
O=C(CCNC1Cc2ccccc2C1)N1CCc2nc(SC3CCC3)n(-c3ccccc3)c(=O)c2C1 | 0.38

Target: 2-acylglycerol O-acyltransferase 2 (MOGAT2, Homo sapiens) (UniProt Q3SYC2)
Assay: Inhibition of recombinant human MGAT2

SMILES | IC50 [nM]
CCOC(=O)CCc1ccc(CN2CC(C(=O)N3CCc4nc(SC5CCCCC5)n(-c5ccccc5)c(=O)c4C3)C2)cc1 | 4
CC(C)(C)c1cc(C(C)(C)C)nc(N2CCn3c(nnc3-c3ccc(OC(F)(F)F)cc3)C2)n1 | 19
O=C1N[C@@](c2ccc(OCCCC(F)(F)F)cc2F)(C(F)(F)F)CC(c2ncc(C3CC3)s2)=C1n1nn[nH]c1=O | 2
O=C1N[C@@]2(CCc3cc(OCCCC(F)(F)F)ccc32)CC(c2cnc(C3CC3)s2)=C1c1noc(=O)[nH]1 | < 1
O=c1c2c(nc(SCc3cccnc3)n1-c1ccccc1)CCN(c1nc3cc(C(F)(F)F)ccc3[nH]1)C2 | 56
O=C(CNCCCCCOc1ccc(C(F)(F)F)cc1)N1CCc2nc(SC3CCC3)n(-c3ccccc3)c(=O)c2C1 | 0.64
CCc1ccc(-c2cc(-c3ccc(OCCCCCC(F)(F)F)cc3C(F)(F)F)[nH]c(=O)c2-c2nn[nH]n2)s1 | 0.3
Cc1ccc(C2=C(C(=O)Nc3ccc(-c4nnn[nH]4)cc3)C(=O)N[C@@](c3ccc(OCCCC(F)(F)F)cc3F)(C(F)(F)F)C2)cc1 | 7
O=C(CCNCC1COc2ccccc2O1)N1CCc2nc(SC3CCC3)n(-c3ccccc3)c(=O)c2C1 (configuration not stated) | 1.1

Target: 2-acylglycerol O-acyltransferase 2 (MOGAT2, Homo sapiens) (UniProt Q3SYC2)
Assay: Inhibition of recombinant human MGAT2 expressed in sf9 cells using 2-monooleoyl glycerol/[14C]-oleoyl CoA as substrate by microscintillation counting method

SMILES | IC50 [nM]
CS(=O)(=O)N[C@@H](c1ccc(CNC[C@H]2COc3cccnc3O2)cc1)C(F)(F)F | 3.8
CC(C)(C)C1CCN(Cc2ccc([C@H](NS(C)(=O)=O)C(F)(F)F)cc2)CC1 | 58
